Reference: PMC4652989, “A small-molecule inhibitor suppresses the tumor-associated mitochondrial NAD(P)^+-dependent malic enzyme (ME2) and induces cellular senescence” (Oncotarget, 2015)
Read-outs that look alike come from different tables or passages of the source.

What was measured:
[1] = biological target: T1, m-NAD(P)-ME Q51A/E90A (Homo sapiens, UniProt P23368, E90A/Q51A); test: malic enzyme activity inhibition, dimer interface mutant; format: biochemical; conditions: Q51A/E90A pre-incubated with 40 μM EA
T1 construct: made in house; host or cells: Escherichia coli BL21
T1 sequence (P23368 19-584 Q51A/E90A): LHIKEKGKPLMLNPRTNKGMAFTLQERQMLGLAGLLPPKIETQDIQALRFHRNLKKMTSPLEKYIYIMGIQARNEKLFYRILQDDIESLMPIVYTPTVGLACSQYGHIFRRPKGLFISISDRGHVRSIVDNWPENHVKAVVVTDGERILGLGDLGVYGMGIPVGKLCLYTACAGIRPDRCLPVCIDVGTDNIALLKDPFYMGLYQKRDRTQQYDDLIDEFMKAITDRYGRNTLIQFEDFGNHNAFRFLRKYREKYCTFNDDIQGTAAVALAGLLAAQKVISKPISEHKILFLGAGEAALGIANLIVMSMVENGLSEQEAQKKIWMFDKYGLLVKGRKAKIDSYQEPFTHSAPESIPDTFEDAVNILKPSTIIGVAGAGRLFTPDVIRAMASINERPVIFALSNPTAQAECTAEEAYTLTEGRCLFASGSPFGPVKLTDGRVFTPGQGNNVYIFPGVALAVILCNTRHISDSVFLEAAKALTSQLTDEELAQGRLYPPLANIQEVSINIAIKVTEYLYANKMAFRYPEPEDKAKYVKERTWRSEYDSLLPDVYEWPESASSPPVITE
Description: (§1) The malic enzyme reaction was assayed in a reaction buffer containing 50 mM Tris-HCl (pH 7.4) with saturated concentrations of L-malate, NAD^+ or NADP^+ and MgCl2, with various concentrations of EA in a total volume of 1 ml at 30°C. The absorbance at 340 nm was continuously monitored in a UV/VIS spectrophotometer Lambda 25 (Perkin Elmer, MA, USA). In this process, one unit of enzyme was defined as the amount of enzyme that produces 1 μmol of NAD(P)H per min under the assay conditions. An absorption coefficient of 6.22 cm^−1mM^−1 for NAD(P)H was used in the calculations.
(§2) The inhibition experiments were conducted with a series of EA concentrations in a buffer containing 50 mM Tris-HCl (pH 7.4), 40 mM malate (pH 7.4), 10 mM MgCl2 and 2 mM NAD^+ (pH 7.4).

[2] = biological target: T2, m-NAD(P)-ME E59N (Homo sapiens, UniProt P23368, E59N); test: malic enzyme activity inhibition, fumarate site mutant; format: biochemical; conditions: E59N pre-incubated with 40 μM EA
T2 construct: made in house; host or cells: Escherichia coli BL21
T2 sequence (P23368 19-584 E59N): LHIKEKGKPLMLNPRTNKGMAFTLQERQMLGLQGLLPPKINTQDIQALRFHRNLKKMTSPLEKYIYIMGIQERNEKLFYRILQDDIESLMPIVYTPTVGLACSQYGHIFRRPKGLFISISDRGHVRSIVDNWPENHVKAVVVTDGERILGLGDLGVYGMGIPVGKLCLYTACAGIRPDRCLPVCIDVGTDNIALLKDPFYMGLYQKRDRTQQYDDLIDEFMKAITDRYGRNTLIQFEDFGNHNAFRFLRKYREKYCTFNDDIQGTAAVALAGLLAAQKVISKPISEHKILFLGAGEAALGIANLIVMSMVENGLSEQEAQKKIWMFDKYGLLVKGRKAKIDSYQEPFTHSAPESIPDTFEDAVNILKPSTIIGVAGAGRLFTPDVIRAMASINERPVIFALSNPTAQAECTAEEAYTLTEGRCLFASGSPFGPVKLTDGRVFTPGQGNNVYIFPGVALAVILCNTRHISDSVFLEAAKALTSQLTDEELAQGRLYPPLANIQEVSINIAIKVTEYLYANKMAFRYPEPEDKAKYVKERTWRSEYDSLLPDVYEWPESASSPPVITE
Description: as §1, §2

[3] = biological target: T3, m-NAD(P)-ME R91A (Homo sapiens, UniProt P23368, R91A); test: as above; format: biochemical; conditions: R91A pre-incubated with 40 μM EA
T3 construct: made in house; host or cells: Escherichia coli BL21
T3 sequence (P23368 19-584 R91A): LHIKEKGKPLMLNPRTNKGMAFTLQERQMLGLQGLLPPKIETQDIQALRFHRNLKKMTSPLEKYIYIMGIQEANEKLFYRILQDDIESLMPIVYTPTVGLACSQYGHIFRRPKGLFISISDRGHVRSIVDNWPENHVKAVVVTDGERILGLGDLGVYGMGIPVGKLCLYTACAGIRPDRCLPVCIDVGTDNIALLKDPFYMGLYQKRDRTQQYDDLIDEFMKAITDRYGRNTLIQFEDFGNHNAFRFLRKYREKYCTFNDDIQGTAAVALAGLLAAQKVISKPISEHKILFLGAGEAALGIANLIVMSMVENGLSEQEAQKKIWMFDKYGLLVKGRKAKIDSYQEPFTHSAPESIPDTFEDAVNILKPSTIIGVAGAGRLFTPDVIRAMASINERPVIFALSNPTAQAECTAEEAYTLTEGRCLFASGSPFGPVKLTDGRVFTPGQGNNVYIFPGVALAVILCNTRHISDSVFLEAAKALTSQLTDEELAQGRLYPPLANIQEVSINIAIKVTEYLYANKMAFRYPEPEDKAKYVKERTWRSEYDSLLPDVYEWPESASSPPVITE
Description: as §1, §2

[4] = test system: m-NAD(P)-ME protein expression in H1299 cells; test: immunoblotting of m-NAD(P)-ME in H1299 cells; format: cell-based, human; conditions: various concentrations of EA, within 24 h, Western blot
Description: The supernatants were boiled in loading buffer, and an aliquot containing 100 μg of protein was separated by SDS-PAGE. After blotting, the PVDF membranes were incubated with anti-human m-NAD(P)-ME (ME2) (Sigma, St Louis, MO) and anti-β-actin antibodies (Santa Cruz) for 6 h, and membranes were then incubated for 1 h with the second antibody labeled with horseradish peroxidase. The antigen-antibody complexes were visualized using enhanced chemiluminescence (Amersham Pharmacia Biotech, USA).

[5] = test system: m-NAD(P)-ME mRNA in H1299 cells; test: RT-PCR of ME2 in H1299 cells; format: cell-based, human; conditions: EA for 12 h
Description: Total RNA was isolated from H1299 cells treated with shME2 or EA for 12 h by using a total RNA reagent (MDBio, Inc., Taiwan). One microgram of RNA was reverse transcribed into cDNA using MMLV reverse transcriptase (Epicentre Biotechnologies, USA). PCR was performed in the linear range (by 25 cycles) with primers specific for ME2 and actin. The primer sequences used to amplify the target genes were as follows: ME2 forward primer, 5′-[…]-3′; ME2 reverse primer, 5′-[…]-3′; actin forward primer, 5′-[…]-3′, and reverse primer, 5′-[…]-3′.

[6] = test system: H1299 cells; test: senescence-associated β-galactosidase (SA-β-gal) assay; format: cell-based, human
Description: Cells were washed in PBS, fixed for 4 min at room temperature in approximately 2 to 3% formaldehyde or 0.2% glutaraldehyde, washed, and then incubated at 37°C under no C0_2 conditions with fresh SA-β-Gal stain solution. Cells were stained with 5-bromo-4-chloro-3-indolyl β-D-galactoside (X-Gal) for 2 to 16 h and detected using the senescence-associated β-galactosidase (SA-β-gal) assay. The percentages of SA-β-gal^+ cells were calculated by the number of positively stained cells per 1,000 cells counted in random fields.

[7] = test system: H1299 cells; format: cell-based, human; conditions: for H1299 cell number / decrease of H1299 cell number compared with the control: 24 h; for H1299 cell growth, time course: within 48 h
Description: H1299 cells were grown in 90% Dulbecco's Modified Eagle Medium (DMEM) with 10% fetal bovine serum (FBS) (Gibco BRL, USA) at a temperature of 37°C in a humidified 5% CO2 environment. Cells were seeded in 6-well cell culture dishes in triplicate at a density of 1 × 10^5 cells/ml medium containing 10% FBS and treated with EA or siRNA at the indicated dosage. The cells were then counted, and cell numbers were determined at the indicated time points. The control shLuc and ME2 shRNA were purchased from the Nature RNAi Core Facility, Taipei, Taiwan (NRC). The shME2 was made using pLKO 005 (TRC2 vector). The target shRNA sequence for ME2 is 5′-[…]-3′, and the target shRNA sequence for luciferase is 5′-[…]-3′.

restoration of EA-inhibited enzyme activity by fumarate [1]	restoration of EA-inhibited enzyme activity by fumarate [2]	restoration of EA-inhibited enzyme activity by fumarate [3]	Structure (SMILES)	protein expression of m-NAD(P)-ME in H1299 cells [4]	mRNA synthesis of m-NAD(P)-ME in H1299 cells [5]	number of SA-β-gal+ H1299 cells ([6]; 1 μM EA, 0-72 h)	EA-induced H1299 cell senescence ([6]; 10 μM EA, within 72 h, vs 1 μM)	amount of senescence after 10 μM EA relative to 1 μM EA ([6]; time course 0-72 h, SA-β-gal+ cells)	H1299 cell number ([7]; 5 nM EA)	H1299 cell number ([7]; 10 nM EA)	decrease of H1299 cell number compared with the control ([7]; 100 nM EA)	decrease of H1299 cell number compared with the control ([7]; 1 μM EA)	H1299 cell growth, time course ([7]; 1 μM EA)	decrease of H1299 cell number compared with the control ([7]; 10 μM EA)	H1299 cell growth, time course ([7]; 10 μM EA, vs 1 μM)
could not be restored	could not be restored	could not be restored	O=C(O)/C=C/C(=O)O [fumarate]	–	–	–	–	–	–	–	–	–	–	–	–
–	–	–	O=C(O)c1cc2ccccc2c(Cc2c(O)c(C(=O)O)cc3ccccc23)c1O [Embonic acid, embonic acid]	not influenced	not influenced	increased in a time-dependent manner	more prominent	2 fold	did not decrease	did not decrease	23%	30%	inhibited H1299 cell growth	40%	more pronounced
